Measurements taken from patent US11884649B2, “IRE1α inhibitors and uses thereof” (The Regents of the University of California, priority 2020, dated 2024).

Key:
Type in all cases: biochemical
dpIRE1α* = molecular target: T1, dpIRE1α* (Homo sapiens, UniProt O75460); assay: In vitro Kdimer assay with dephosphorylated construct; conditions: 50 μM inhibitor
T1 construct: human IRE1α (residues 547-977, IRE1α*) was expressed in SF9 insect cells; His6 (N); made in house; host or cells: Sf9 insect cells, then λ-PPase treatment
T1 sequence (O75460 547-977): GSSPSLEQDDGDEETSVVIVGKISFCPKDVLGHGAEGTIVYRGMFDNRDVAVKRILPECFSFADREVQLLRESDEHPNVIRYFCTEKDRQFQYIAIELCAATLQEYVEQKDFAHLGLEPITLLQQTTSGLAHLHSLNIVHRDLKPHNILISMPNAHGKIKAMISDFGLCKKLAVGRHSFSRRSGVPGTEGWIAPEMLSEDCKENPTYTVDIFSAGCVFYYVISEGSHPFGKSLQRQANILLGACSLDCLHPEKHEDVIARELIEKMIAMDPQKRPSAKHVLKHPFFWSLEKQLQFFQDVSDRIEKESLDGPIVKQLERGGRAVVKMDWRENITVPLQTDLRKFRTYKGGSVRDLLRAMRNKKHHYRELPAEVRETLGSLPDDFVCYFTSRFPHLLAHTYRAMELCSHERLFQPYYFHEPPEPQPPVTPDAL
Description: In order to better understand how to achieve an optimal intermediate RNase activation state through engagement of IRE1α's kinase domain, we first established a quantitative in vitro framework for characterizing how ATP-binding site occupancy influences RNase activity. […] This dimeric state-commonly referred to as the “back-to-back” dimer—is characterized by an extensive interface between the kinase and RNase domains of each IRE1α protomer; this dimeric state can be promoted through mass action as IRE1α concentration is raised. […] Furthermore, ligands that occupy the ATP-binding site of the kinase domain can also stimulate IRE1α's RNase activity by promoting dimer formation. We measured the ability of a purified, recombinant kinase/RNase domain construct of IRE1α—called IRE1α*—to cleave a FRET-quenched XBP1 RNA mini-substrate as a function of IRE1α* concentration, in order to provide a quantitative metric of IRE1α's dimer affinity (Kdimer) (FIG. 1B). […]
IRE1α* or dPIRE1α* was titrated from either 2 μM or 4 μM in two-fold serial dilutions in assay buffer (20 mM Tris, 50 mM sodium chloride, 1 mM MgCl2, 2 mM DTT, 0.05% Triton X-100 (v/v), pH 7.5) and incubated with 50 μM inhibitor for 30 minutes at room temperature. […] Fluorescence was detected on a Perkin Elmer Envision Microplate Reader at excitation and emission wavelengths of 650 nm and 665 nm. […]

IRE1α* [1] = molecular target: T2, IRE1α* (Homo sapiens, UniProt O75460); assay: In vitro Kdimer assay (dimerization affinity from RNase activity); conditions: 50 μM inhibitor
T2 construct: human IRE1α (residues 547-977, IRE1α*) was expressed in SF9 insect cells; His6 (N); made in house; host or cells: Sf9 insect cells (Bac-to-Bac baculovirus)
T2 sequence (O75460 547-977): as above
Description: In order to better understand how to achieve an optimal intermediate RNase activation state through engagement of IRE1α's kinase domain, we first established a quantitative in vitro framework for characterizing how ATP-binding site occupancy influences RNase activity. […] This dimeric state-commonly referred to as the “back-to-back” dimer—is characterized by an extensive interface between the kinase and RNase domains of each IRE1α protomer; this dimeric state can be promoted through mass action as IRE1α concentration is raised. […] Furthermore, ligands that occupy the ATP-binding site of the kinase domain can also stimulate IRE1α's RNase activity by promoting dimer formation. We measured the ability of a purified, recombinant kinase/RNase domain construct of IRE1α—called IRE1α*—to cleave a FRET-quenched XBP1 RNA mini-substrate as a function of IRE1α* concentration, in order to provide a quantitative metric of IRE1α's dimer affinity (Kdimer) (FIG. 1B).
IRE1α* or dPIRE1α* was titrated from either 2 μM or 4 μM in two-fold serial dilutions in assay buffer (20 mM Tris, 50 mM sodium chloride, 1 mM MgCl2, 2 mM DTT, 0.05% Triton X-100 (v/v), pH 7.5) and incubated with 50 μM inhibitor for 30 minutes at room temperature. Assays were initiated by adding 10 μL of XBP1-mini substrate (5′-Alex647-CAUGUCCGCAGCGCAUG-IowaBlack-FQ-3′ (SEQ ID NO:1); IDT) to the wells at a final concentration of 6 μM and a final well volume of 30 μL. Fluorescence was detected on a Perkin Elmer Envision Microplate Reader at excitation and emission wavelengths of 650 nm and 665 nm. Reaction process was monitored real time in 10-second intervals for at least 30 minutes. Initial rates of XBP1-cleavage were determined for each respective IRE1α* of dpIRE1α* concentration. Specific activity was then determined by dividing rate (RFU/s) by the respective IRE1α* of dpIRE1α* used (RFU/s*[IRE1α]). Kdimer values were determined by fitting these values using the non-linear regression ‘one-site total’ binding parameter in GraphPad Prism analysis software.

IRE1α* [2] = molecular target: T2, IRE1α*; assay: In vitro RNase activity assay, XBP1-mini substrate cleavage, inhibitor titrations; conditions: relative to apo IRE1α*
Protocol: In Vitro RNase Activity Assay Inhibitor Titrations
50 nM IRE1α* was incubated with inhibitor (initial concentration of 10 or 60 μM, three-fold serial dilutions) or DMSO for 30 min in assay buffer (20 mM Tris, 50 mM NaCl, 1 mM MgCl2, 2 mM DTT, 0.05% Triton X-100 (v/v), pH 7.5). Assays were initiated by adding 10 μL of XBP1-mini substrate (5′-Alex647-CAUGUCCGCAGCGCAUG-IowaBlack-FQ-3′ (SEQ ID NO: 1); IDT) to the wells at a final concentration of 200 nM and a final well volume of 30 μL. Fluorescence was detected on a Perkin Elmer Envision Microplate Reader at excitation and emission wavelengths of 650 nm and 665 nm. Dose-response curves were fit using “one-site fit log IC50” parameter using GraphPad Prism analysis software.

IRE1α* [3] = molecular target: T2, IRE1α*; assay: In vitro kinase activity assay (IRE1α kinase inhibition)
Protocol: A construct containing the cytosolic kinase and RNase domains of human IRE1α (residues 547-977, IRE1α*) was expressed in SF9 insect cells by using the Bac-to-Bac baculovirus expression system (Invitrogen) with a His6 tag at the N-terminus and purified with a nickel-nitriloacetic acid (Qiagen) column. To generate dP-IRE1α*, we removed basal phosphorylation sites by incubating IRE1α* with λ-PPase (New England Biolabs) at a molar ratio of 5:1 (IRE1α*: λ-PPase) in 50 mM HEPES pH 7.5, 100 mM NaCl, 1 mM MnCl2, 2 mM dithiothreitol (DTT) and 0.01% Brij 35 detergent (v/v) overnight at 4° C. Dephosphorylation was verified through western blotting using a universal phospho-protein detection agent (biotin-pIMAGO (Tymora Analytical Operations, Cat. No.: FL800) and imaged using a streptavidin-linked fluorophore.
In Vitro Kinase Activity Assay
Inhibitors (initial concentration of 10 or 60 μM, three-fold serial dilutions) were incubated with IRE1α* in cleavage buffer (20 mM HEPES, 0.05% Triton X-100 (v/v), 50 mM KCl, 1 mM MgCl2, 1 mM DTT, pH 7.5) for 30 min, followed by incubation with 10 μCi [γ^32P] ATP (3,000 Ci mmol^−1, PerkinElmer) at 23° C. for 3 hours. Samples were then spotted onto glass fiber paper (Easytab-C Glass Fiber Filter Paper, Perkin Elmer) and washed in twice with 0.5% phosphoric acid and autoradiographed using a GE Typhoon FLA 9000 Imager. Blots were quantitated using ImageQuant software. The percent inhibition was quantified by setting the background (no kinase well) as 0 and standardizing to IRE1α* without compound treatment (IRE1α*+DMSO). Dose-response curves were fit using “one-site fit log IC50” parameter using GraphPad Prism analysis software.
Compound Characterization (IC50 IRE1α Kinase Inhibition)

RNase activity of IRE1α* (in words) (IRE1α* [2]) | kinase activity of IRE1α* / ATP-binding site occupancy (in words) (IRE1α* [3]) | SMILES | formation of the RNase active dimer of dpIRE1α* (dpIRE1α*) | dimerization affinity of IRE1α* / formation of RNase active dimers (IRE1α* [1])
 |  | NC(=O)Nc1cc(-c2cccc(F)c2)sc1C(=O)N[C@H]1CCCNC1 [AZD7762] | promotes the formation of the RNase active dimer of dpIRE1α* | promotes the formation of the RNase active dimer of IRE1α*
dose-dependently inhibited | dose-dependently inhibited | N[C@H]1CC[C@H](Nc2nccc(-c3cccnc3Oc3ccc(NS(=O)(=O)CCC(F)(F)F)c(F)c3)n2)CC1 [compound 3, N-(4-(3-(2-((1r,4r)-4-aminocyclohexylamino)pyrimidin-4-yl)pyridin-2-yloxy)-2-fluorophenyl)-3,3,3-trifluoropropane-1-sulfonamide] |  | completely suppressed the formation of RNase active dimers
